# Results reported in ChEMBL document CHEMBL1158873, “Chemistry of Fijian Plants. 13. 1 Floribundal, a Nonglycosidic Bisiridoid, and Six Novel Fatty Esters of -Amyrin from Scaevola floribunda” (J Nat Prod, 1997).
# Tested on: Artemia
# Experiment: Toxicity against brine shrimp
# Assay type: organism-based
# Details: in vivo
smiles,measurement,value
COC(=O)C[C@@H]1C(C(=O)O[C@H]2C[C@@H]3C(C(=O)OC)=CO[C@@H](O)[C@@H]3[C@H]2C)=CO[C@@H](C)[C@H]1C=O [FLORIBUNDAL],Activity,Non-toxic
